Laboratory results from ChEMBL document CHEMBL1795321, “Synthesis and in vitro evaluation of ambrisentan analogues as potential endothelin receptor antagonists” (Bioorg Med Chem Lett, 2011).
Active and inactive are the calls of the source. The calls are words filed in the database; no cut-off is given here.

These compounds were tested against T1, Endothelin receptor type A (Oryctolagus cuniculus) (UniProt A5A8K3) (assay: Inhibition of endothelin A receptor in New Zealand white rabbit aortic rings assessed as inhibition of endothelin-1-induced vascular contraction at 10^-6 M).
T1 sequence (whole entry): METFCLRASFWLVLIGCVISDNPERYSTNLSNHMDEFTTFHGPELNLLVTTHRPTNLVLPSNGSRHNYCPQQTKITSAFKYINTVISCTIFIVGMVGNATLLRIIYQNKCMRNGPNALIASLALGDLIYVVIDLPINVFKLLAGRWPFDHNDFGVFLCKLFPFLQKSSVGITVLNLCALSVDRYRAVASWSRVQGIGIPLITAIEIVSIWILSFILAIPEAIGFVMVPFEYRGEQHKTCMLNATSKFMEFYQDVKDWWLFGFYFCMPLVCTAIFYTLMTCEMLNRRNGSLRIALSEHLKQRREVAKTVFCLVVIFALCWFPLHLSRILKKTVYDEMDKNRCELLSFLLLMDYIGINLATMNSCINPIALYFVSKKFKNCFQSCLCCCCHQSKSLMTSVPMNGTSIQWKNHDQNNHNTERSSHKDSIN

SMILES	inhibition
Cc1cccc(C(=O)OCC(c2ccccc2)(c2ccccc2)C(Oc2nc(C)cc(C)n2)C(=O)O)c1 (stereo not drawn)	inactive
Cc1cc(C)nc(OC(C(=O)O)C(COC(=O)CCC(=O)O)(c2ccccc2)c2ccccc2)n1 (stereo not drawn)	inactive
Cc1cc(C)nc(OC(C(=O)O)C(COC(=O)CC(C)C)(c2ccccc2)c2ccccc2)n1 (stereo not drawn)	21.8%
Cc1cc(C)nc(OC(C(=O)O)C(COC(=O)CCCC(=O)O)(c2ccccc2)c2ccccc2)n1 (stereo not drawn)	3.47%
CCC(=O)OCC(c1ccccc1)(c1ccccc1)C(Oc1nc(C)cc(C)n1)C(=O)O (stereo not drawn)	21.7%
CCCC(=O)OCC(c1ccccc1)(c1ccccc1)C(Oc1nc(C)cc(C)n1)C(=O)O (stereo not drawn)	1.11%
COc1ccccc1Oc1c(NS(=O)(=O)c2ccc(C(C)(C)C)cc2)nc(-c2ncccn2)nc1OCCO	22.5%
Cc1cc(C)nc(OC(C(=O)O)C(COC(=O)Cc2ccccc2)(c2ccccc2)c2ccccc2)n1 (stereo not drawn)	inactive
Cc1cc(C)nc(OC(C(=O)O)C(COC(=O)OC(C)(C)C)(c2ccccc2)c2ccccc2)n1 (stereo not drawn)	inactive
CCOC(=O)OCC(c1ccccc1)(c1ccccc1)C(Oc1nc(C)cc(C)n1)C(=O)O (stereo not drawn)	15.5%
Cc1cc(C)nc(OC(C(=O)O)C(COC(=O)c2ccncc2)(c2ccccc2)c2ccccc2)n1 (stereo not drawn)	13.2%
Cc1cc(C)nc(OC(C(=O)O)C(COC(=O)c2ccccc2)(c2ccccc2)c2ccccc2)n1 (stereo not drawn)	8.09%
CCCCCCCC(=O)OCC(c1ccccc1)(c1ccccc1)C(Oc1nc(C)cc(C)n1)C(=O)O (stereo not drawn)	5.61%
COCC(c1ccccc1)(c1ccccc1)C(Oc1nc(C)cc(C)n1)C(=O)O (stereo not drawn)	inactive
Cc1cc(C)nc(OC(C(=O)OCc2ccccc2)C(CO)(c2ccccc2)c2ccccc2)n1 (stereo not drawn)	inactive
CCCCC(=O)OCC(c1ccccc1)(c1ccccc1)C(Oc1nc(C)cc(C)n1)C(=O)O (stereo not drawn)	5.88%
Cc1cc(C)nc(OC(C(=O)O)C(COCc2ccccc2)(c2ccccc2)c2ccccc2)n1 (stereo not drawn)	inactive
Cc1cc(C)nc(OC(C(=O)O)C(CO)(c2ccccc2)c2ccccc2)n1 (stereo not drawn)	23.2%
Cc1cc(C)nc(OC(C(=O)O)C(COC(=O)c2cccnc2)(c2ccccc2)c2ccccc2)n1 (stereo not drawn)	7.82%

SMILES	inhibition
CCCOCC(c1ccccc1)(c1ccccc1)C(Oc1nc(C)cc(C)n1)C(=O)O (stereo not drawn)	inactive
CCCCOCC(c1ccccc1)(c1ccccc1)C(Oc1nc(C)cc(C)n1)C(=O)O (stereo not drawn)	15.1%
C=CCOCC(c1ccccc1)(c1ccccc1)C(Oc1nc(C)cc(C)n1)C(=O)O (stereo not drawn)	23.4%
Cc1cc(C)nc(OC2C(=O)OCC2(c2ccccc2)c2ccccc2)n1 (stereo not drawn)	14.3%
Cc1cc(C)nc(OC(C(=O)O)C(COC(=O)OCC(C)C)(c2ccccc2)c2ccccc2)n1 (stereo not drawn)	13.7%
COc1ccc(C(=O)OCC(c2ccccc2)(c2ccccc2)C(Oc2nc(C)cc(C)n2)C(=O)O)cc1 (stereo not drawn)	inactive
Cc1cc(C)nc(OC(C(=O)O)C(COC(=O)CCc2ccccc2)(c2ccccc2)c2ccccc2)n1 (stereo not drawn)	inactive
Cc1cc(C)nc(OC(C(=O)O)C(COC(=O)N(C)C)(c2ccccc2)c2ccccc2)n1 (stereo not drawn)	inactive
Cc1ccc(S(=O)(=O)OCC(c2ccccc2)(c2ccccc2)C(Oc2nc(C)cc(C)n2)C(=O)O)cc1 (stereo not drawn)	inactive
Cc1cc(C)nc(OC(C(=O)O)C(COC(=O)C(C)(C)C)(c2ccccc2)c2ccccc2)n1 (stereo not drawn)	inactive
COC(c1ccccc1)(c1ccccc1)[C@H](Oc1nc(C)cc(C)n1)C(=O)O	43.2%
CCOCC(c1ccccc1)(c1ccccc1)C(Oc1nc(C)cc(C)n1)C(=O)O (stereo not drawn)	20.6%
Cc1cc(C)nc(OC(C(=O)O)C(COC(=O)OC(C)C)(c2ccccc2)c2ccccc2)n1 (stereo not drawn)	22%
CC(=O)OCC(c1ccccc1)(c1ccccc1)C(Oc1nc(C)cc(C)n1)C(=O)O (stereo not drawn)	9.64%
COC(=O)OCC(c1ccccc1)(c1ccccc1)C(Oc1nc(C)cc(C)n1)C(=O)O (stereo not drawn)	3.4%
CCC(C)(C)C(=O)OCC(c1ccccc1)(c1ccccc1)C(Oc1nc(C)cc(C)n1)C(=O)O (stereo not drawn)	inactive
Cc1cc(C)nc(OC(C(=O)O)C(C#N)(c2ccccc2)c2ccccc2)n1 (racemic)	42.2%
Cc1cc(C)nc(OC(C(=O)O)C(Cc2ccccc2)(c2ccccc2)c2ccccc2)n1 (stereo not drawn)	11.8%
CCCCCC(=O)OCC(c1ccccc1)(c1ccccc1)C(Oc1nc(C)cc(C)n1)C(=O)O (stereo not drawn)	inactive
